According to patent US20030232851A1, “Viral treatment” (The Procter & Gamble Company, priority 1999, published 2003):
pEC50: −log10 of the molar value. Several values for one entry are separate records, joined by “and”; a condition that tells them apart may be missing. Equal entries are not always repeated.

Experiments:
[1] = test system: U937KN1272, a protease resistant strain; assay: Long term in vitro study, U937KN1272, reverse transcriptase; assay type: cell-based, HIV
Protocol: A microtiter-based reveres transcriptase (RT) reaction is utilized (Buckheit et al (1991) AIDS Research and Human Retroviruses 7:295-302). Tritiated thymidine triphosphate (NEN)(TTP) is resuspended in distilled water at 5 Ci/ml. Poly rA and oligo dT are prepared as a stock solution which is kept at −20° C. The RT reaction buffer is prepared fresh on a daily basis and consists of 125 μl 1M EGTA, 125 μl water, 125 μl Triton X-100, 50 μl Tris (pH 7.4), 50 μl 1 MDDT, and 40 μl 1M MgCl2. These three solutions are mixed together in a ratio of 1 part TTP, 2.5 parts poly rA:oligo dT, 2.5 parts reaction buffer and 4 parts distilled water. Ten microliters of this reaction mixture is placed in a round bottom microtiter place and 15 μl of virus containing supernatant is added and mixed. The plate is incubated at 37° C. for 60 minutes. Following reaction, the reaction volume is spotted onto filter mats, washed 6 times for 5 minutes each in a 5% sodium phosphate buffer, 2 times for 1 minute each in distilled water, 2 times for 1 minute each in 70% ethanol, and then dried. The dried filter mat is placed in a plastic sample bag, Betaplate scintillation fluid is added and the bag is heat sealed. Incorporated radioactivity is quantified utilizing a Wallac Microbeta scintillation counter.
Acute infection of most established human cell lines with HIV-1 results in the eventual establishment of a constitutive virus-producing chronically infected cell line. The cells can be passaged for long periods of time in culture without loss of virus production. These cells may be utilized to evaluate the effects of anti-HIV compounds on syncytium formation or to evaluate the effects of anti-HIV compounds on levels of virus production from these cells. […] Each of the cells contains an integrated HIV genome or provirus. Chronically infected CEM, H9 and U937 cell lines have been prepared and cultured by Southern Research Institute, Frederick Md. and are available from them.
CEM-SS cells chronically infected with HIV isolate, for example SKI (CEM-SKI) are cultured in RPMI1640 tissue culture medium supplemented with 10% fetal bovine serum and antibiotics. […] CEM-SKI or other infected cells with no added drug are used as the control cells. Cells are allowed to grow to a density of approximately 1×10^6 cells/ml and are then passaged at a 1:10 dilution. […] The drug concentration in the flask is then increased two-fold and the cells maintained as above.
The cell populations contain integrated copies of the HIV genome and constitutively produce HIV at relatively high levels or are latently infected and only produce virus after stimulation with phorbol esters, tumor necrosis factor or IL6 (U1 and ACH2). Reductions in virus products were observed when quantifying supernatant reverse transcriptase activity,
Similar results are obtained with U937KN1272, a protease resistant strain, reported below.

[2] = test system: vero cells; assay: Herpes simplex testing: toxicity (TC50); set-up: unit not given beside the values
[3] = molecular target: HIV-1 integrase (Human immunodeficiency virus type 1 group M subtype B, UniProt P04585); assay: HIV-1 integrase inhibition assay; assay type: biochemical; set-up: HIV-1 Integrase Inhibition, sample reading / HIV-1 Integrase Inhibition, mean: unit not given here; details: for HIV-1 Integrase Inhibition, sample reading: sample 1, sample 2
Text: A biochemical integrase assay described by Craigie et at (HIV, vol. 2: A practical Approach) Biochemistry, Molecular Biology and Drug Discovery, Ed. J. Kam 1995) to screen agents for their ability to inhibit HIV-1 integrase. In this system, a kinased oligonucleotide serves as the target of 3′ processing and the subsequent strand transfer reaction. The 3′ processing reaction involves the removal of 2 nucleotides from the 3′ ends of the substrate and this is followed by the strand transfer reaction in which the 3′ ends are joined to the exposed 5′ ends. The 20 μl reaction mixture contains 25 mM MOPS (pH 7.2), […] BSA, 10 mM β-mercaptoethanol, 10% glycerol, 7.5 mM MnCl2, 25 nM (7 ng) substrate (Oligo's Etc., Wilsonville, Oreg.) and 200 nM (128 ng) integrase (NIAID AIDS Research and Reference Reagent Program, Bethesda, Md.). The reaction proceeds at 37° C. for 1-2 hours and is terminated by the addition of 20 μl of sequencing stop solution (JSB Amersham, Arlington Heights, Ill.). The reaction products are visualized by autoradiography following electrophoresis in 15% polyacrylamide 6M Urea gel. The substrate migrates as a 30 mer, the product of 3′ processing migrates as an N-2 band and the strand transfer products migrate more slowly at various sizes larger than the substrate.

c1csc(-c2nc3cccnc3[nH]2)c1 [2-(2-thienyl)-imidazolo [4,5-b]pyridine]
reverse transcriptase data ([1]; 7 μg/ml, day 4): 3503
reverse transcriptase data ([1]; 7 μg/ml, day 11): 10001
reverse transcriptase data ([1]; 7 μg/ml, day 18): 14176
reverse transcriptase data ([1]; 7 μg/ml, day 25): 14084
reverse transcriptase data ([1]; 7 μg/ml, day 32): 9919
reverse transcriptase data ([1]; 7 μg/ml, day 39): 8890
reverse transcriptase data ([1]; 7 μg/ml, day 46): 9238
reverse transcriptase data ([1]; 7 μg/ml, day 53): 9074
reverse transcriptase data ([1]; 7 μg/ml, day 60): 7460
reverse transcriptase data ([1]; 7 μg/ml, day 67): 7863
reverse transcriptase data ([1]; 7 μg/ml, day 71): 8402
reverse transcriptase data ([1]; 7 μg/ml, day 74): 8976
reverse transcriptase data ([1]; 7 μg/ml, day 88): 8522
reverse transcriptase data ([1]; 7 μg/ml, day 95): 9358
reverse transcriptase data ([1]; 7 μg/ml, day 102): 9221
reverse transcriptase data ([1]; 7 μg/ml, day 109): 8245
reverse transcriptase data ([1]; 15 μg/ml, day 4): 2354
reverse transcriptase data ([1]; 15 μg/ml, day 11): 7962
reverse transcriptase data ([1]; 15 μg/ml, day 18): 11866
reverse transcriptase data ([1]; 15 μg/ml, day 25): 13386
reverse transcriptase data ([1]; 15 μg/ml, day 32): 10413
reverse transcriptase data ([1]; 15 μg/ml, day 39): 8675
reverse transcriptase data ([1]; 15 μg/ml, day 46): 8124
reverse transcriptase data ([1]; 15 μg/ml, day 53): 7645
reverse transcriptase data ([1]; 15 μg/ml, day 60): 5534
reverse transcriptase data ([1]; 15 μg/ml, day 67): 4321
reverse transcriptase data ([1]; 15 μg/ml, day 71): 5364
reverse transcriptase data ([1]; 15 μg/ml, day 74): 6974
reverse transcriptase data ([1]; 15 μg/ml, day 88): 4297
reverse transcriptase data ([1]; 15 μg/ml, day 95): 5224
reverse transcriptase data ([1]; 15 μg/ml, day 102): 5361
reverse transcriptase data ([1]; 15 μg/ml, day 109): 7833
reverse transcriptase data ([1]; 30 μg/ml, day 4): 1209
reverse transcriptase data ([1]; 30 μg/ml, day 11): 4377
reverse transcriptase data ([1]; 30 μg/ml, day 18): 6376
reverse transcriptase data ([1]; 30 μg/ml, day 25): 9293
reverse transcriptase data ([1]; 30 μg/ml, day 32): 9903
reverse transcriptase data ([1]; 30 μg/ml, day 39): 6852
reverse transcriptase data ([1]; 30 μg/ml, day 46): 2502
reverse transcriptase data ([1]; 30 μg/ml, day 53): 2760
reverse transcriptase data ([1]; 30 μg/ml, day 60): 2478
reverse transcriptase data ([1]; 30 μg/ml, day 67): 1643
reverse transcriptase data ([1]; 30 μg/ml, day 71): 4820
reverse transcriptase data ([1]; 30 μg/ml, day 74): 3270
reverse transcriptase data ([1]; 30 μg/ml, day 88): 3184
reverse transcriptase data ([1]; 30 μg/ml, day 95): 2031
reverse transcriptase data ([1]; 30 μg/ml, day 102): 3427
reverse transcriptase data ([1]; 30 μg/ml, day 109): 1356
TC50 [2]: 82.8
pEC50 [3]: < 3.30
HIV-1 Integrase Inhibition, mean ([3]; 0.1 μg/ml): 10577
HIV-1 Integrase Inhibition, sample reading ([3]; 0.1 μg/ml): 11155.2 and 9998.8
HIV-1 Integrase Inhibition, mean ([3]; 1 μg/ml): 10104
HIV-1 Integrase Inhibition, sample reading ([3]; 1 μg/ml): 10640.4 and 9568.4
HIV-1 Integrase Inhibition, mean ([3]; 10 μg/ml): 10580
HIV-1 Integrase Inhibition, sample reading ([3]; 10 μg/ml): 10814.1 and 10345.1
HIV-1 Integrase Inhibition, mean ([3]; 100 μg/ml): 7214
HIV-1 Integrase Inhibition, sample reading ([3]; 100 μg/ml): 7639.4 and 6788.6
